Series [1] concerns Leishmania donovani (L. Don, MHOM/ET/67/L82 strain). The experiment in a line: Leishmania protozoa proliferation inhibition test (amastigotes, Alamar Blue). It counts as cell-based. The settings on record: for Selective Toxicity Coefficient: (IC50 against rat L6 cells)/(IC50 against leishmania protozoa). As to the method:
In this test, Leishmania donovani (L. Don, MHOM/ET/67/L82 strain) was used. The protozoa were maintained in the Syrian Golden hamster, and amastigotes were collected from the spleen of an infected hamster. A SM medium supplemented with 10% heat-inactivated fetal bovine serum was used in the experiment, and the pH was adjusted to 5.4. The protozoa were grown at 37° C. under an atmosphere having a CO2 concentration of 5%. The activity with respect to inhibition of the proliferation of leishmania protozoa was studied for Compounds A, C, and D according to the invention for test, and for MKT-077, Compound X, and miltefosine (positive compound, existing drug) as comparative compounds. The structures of the compounds are as shown below. Each compound was dissolved in DMSO to give a test solution having a predetermined concentration. Each of the compounds to be used in the test was dissolved in DMSO to give a test solution having a concentration of 10 mg/mL. Assays were performed in 96-well culture plates, with each well containing 100 μL of the culture medium containing 10^5 amastigotes with or without the test compound at a predetermined serial dilution. The test was conducted twice. […] Each culture plate was mounted on a microplate fluorometer, and irradiated with light at an excitation wavelength of 536 nm. The intensity of fluorescence at 588 nm was measured, and the residual ratios of leishmania protozoa in the group added with the test solution and in the control were calculated. […] The selective toxicity coefficient, which is used as an index of the selectivity against leishmania protozoa, was calculated according to the following equation, and the drug efficacy was evaluated. Selective toxicity coefficient=(IC50 value of the test compound against rat L6 cells)/(IC50 value of the test compound against leishmania protozoa)
For orientation: Alamar Blue is a resazurin reagent that responds to reducing activity.

Series [2] relates to Rat-derived L6 cells (rat skeletal myoblast cells). The experiment in a line: Rat L6 cell proliferation inhibition test. It counts as cell-based. The procedure: Rat-derived L6 cells (rat skeletal myoblast cells) were used. The cells were cultured at 37° C. at a CO2 concentration of 5%, using, as a culture medium, a RPMI 1640 medium supplemented with 1% L-glutamine (200 mM) and 10% fetal bovine serum (FBS).
Each of the compounds to be tested was dissolved in DMSO to give a test solution having a concentration of 10 mg/mL.
96-well culture plates of which each well contained 4×10^4 cells in 100 μL of the culture medium were prepared. After 24 hours, a 3-fold dilution series was prepared according to an ordinary method by adding a medium containing the compound to be tested, and the test was conducted.
After incubating the culture plates for 72 hours in an incubator, the plates were inspected with respect to proliferation activity. The inspection was conducted as follows. 10 μL of the Alamar Blue aqueous solution as described above was added to each well, and the plates were incubated for another 2 hours. Then, the culture plates were mounted on a microplate fluorometer, and irradiated with light at an excitation wavelength of 536 nm. The intensity of fluorescence at 588 nm was measured, and the residual ratios of L6 cells in the group added with the test solution and in the control were calculated.
The 50% proliferation inhibitory concentration (IC50) values were determined based on the residual ratios of cells obtained above, and the results are shown in Table 1. In Table 1, “ND” represents that the test was not conducted.

For series [3], the system named is leishmania protozoa in macrophages (L. Don). The experiment in a line: Leishmania protozoa proliferation inhibition test in macrophages. It counts as cell-based, Leishmania donovani. The settings on record: amastigotes in murine peritoneal macrophages, 4 days incubation, number of infected macrophages. As to the method:
The inhibitory activity on the proliferation of leishmania protozoa in macrophages was examined for Compounds A and B according to the invention and comparative compounds MKT-077, Compound X, Compound Y, Compound Z, and miltefosine (positive compound, existing drug). The structures of the compounds are as shown below. Peritoneal macrophages from NMRI mice are collected 1 day after stimulation of macrophage production with an intraperitoneal injection of 2 mL of a 2% potato starch suspension. The present test was conducted at 37° C. under an atmosphere having a CO2 concentration of 5%. Each of the compounds to be used in the test was dissolved in DMSO to give a test solution having a predetermined concentration. […] After 24 hours, 100 μL of a suspension containing amastigotes (1.2×10^6/mL) was further added to each well, giving a suspension having a amastigotes/macrophages ratio of 3/1. The amastigotes were prepared in the same manner as above, and suspended in the RPMI/FBS medium. After 24 hours, the medium containing free amastigotes was removed, the cells were washed once with medium, and fresh media containing the test compound at serial dilutions (four 3-fold dilutions for each compound) were added to the wells. […] The IC50 values were determined based on the number of infected macrophages.

In series [4] the test system is L. donovani (strain MHOM/ET/67/HU3). The experiment in a line: Anti-leishmania activity test using mice infected with leishmania. It counts as in vivo, Female BALB/c mice. As to conditions: amastigotes per 500 liver cells. The procedure: Compound A was used as the test compound in this test. Further, a pentostam-sensitive L. donovani (strain MHOM/ET/67/HU3) was used in this test, and the protozoa were maintained in Syrian Golden hamsters, and amastigotes were isolated from spleen cells of the infected hamster. Then, an inoculum containing 7.5×10^7 amastigotes/mL in RPMI 1640 was prepared. Female BALB/c mice (20 g) were infected with the amastigotes by intravenous injection at the tail vein on day 0. On day 7 after infection, one mouse was sacrificed, liver smears were methanol-fixed and Giemsa-stained, thereby confirming infection. The test compound was dissolved in an aqueous solution containing 10% ethanol and 5% glucose, and administered to the mice once a day for 5 days from day 7 to day 11. 3 days after the completion of the administration of the drug, livers were removed and weighed, and smears were methanol-fixed and then Giemsa-stained. The number of amastigotes (average value) per 500 liver cells was determined by counting, and the infection inhibition rate was determined based on the comparison thereof with mice that had not been treated with the drug. Infection inhibition rate (%)=[1−(b−a)/(c−a)]×100 a: Initial infection rate b: Infection rate in the mice treated with the test solution c: Infection rate in the control mice

The test system of series [5] is Peritoneal macrophages from NMRI mice. The experiment in a line: Toxic effect on macrophages in the macrophage test. As to conditions: murine peritoneal macrophages in the macrophage test. It counts as cell-based. As to the method: Peritoneal macrophages from NMRI mice are collected 1 day after stimulation of macrophage production with an intraperitoneal injection of 2 mL of a 2% potato starch suspension. The present test was conducted at 37° C. under an atmosphere having a CO2 concentration of 5%. Each of the compounds to be used in the test was dissolved in DMSO to give a test solution having a predetermined concentration.
100 μL of a murine macrophage suspension (4×10^5/mL) in a RPMI 1640 medium containing bicarbonate and N-2-hydroxyethylpiperazine-N′-2-ethanesulfonic acid (HEPES) and supplemented with 10% heat-inactivated fetal bovine serum (RPMI/FBS medium) was added to wells of 96-well culture plates. After 24 hours, 100 μL of a suspension containing amastigotes (1.2×10^6/mL) was further added to each well, giving a suspension having a amastigotes/macrophages ratio of 3/1. The amastigotes were prepared in the same manner as above, and suspended in the RPMI/FBS medium. After 24 hours, the medium containing free amastigotes was removed, the cells were washed once with medium, and fresh media containing the test compound at serial dilutions (four 3-fold dilutions for each compound) were added to the wells. The growth of the protozoa in samples treated with the test-compound-containing media was compared with that of the control. Specifically, after 4 days of incubation, the samples were fixed with methanol, and thereafter stained with a 10% Giemsa solution. The IC50 values were determined based on the number of infected macrophages.
It is unexpected and surprising finding that such a harsh toxic effect against macrophages is reduced by introduction of a halogen atom, particularly a fluorine atom, according to the invention, and anti-leishmania activity is manifested.

Where [6] appears, read: Leishmania donovani, 72 h, pH 5.4, read-out: 50% Proliferation Inhibitory Concentration IC50 L. Don, amastigotes, 72 hours incubation, pH 5.4, Alamar Blue.
The mark [7] stands for this setting: Rattus norvegicus, L6, 72 h, read-out: 50% Proliferation Inhibitory Concentration IC50 L-6 Cells, rat L6 cells, 72 hours incubation, Alamar Blue.

Each structure is given as a SMILES string. “Also recorded” adds a separate entry of the source. Counter-ions that a name gives are not always drawn. Like-named read-outs stand apart in the source and are kept apart here. A value given as a limit tells only on which side of the number the result lay.

In turn, `CCn1c(=O)/c(=C/C=C2\Sc3ccccc3N2C)s/c1=C\c1sc2ccc(F)cc2[n+]1C` (as salt: maleate) [Compound C, 2-((3-ethyl-5-(2-(3-methylbenzo[d]thiazol-2(3H)-ylidene)ethylidene)-4-oxothiazolidin-2-ylidene)methyl)-5-fluoro-3-methylbenzo[d]thiazol-3-ium maleate] came in with a melting point of 260.1 to 260.8 °C.
Regarding `CCn1c(=O)/c(=C/C=C2\Sc3ccccc3N2C)s/c1=C\c1sc2ccc(F)cc2[n+]1C.[Cl-]` [Compound A, 2-((3-ethyl-5-(2-(3-methylbenzo[d]thiazole-2(3H)-ylidene)ethylidene)-4-oxothiazolidine-2-ylidene)methyl-5-fluoro-3-methylbenzo[d]thiazole-3-ium chloride], the IC50 in series [1] (Leishmania donovani, amastigotes, 72 hours incubation, pH 5.4, Alamar Blue, read-out: 50% Proliferation Inhibitory Concentration IC50 L. Don) was 11 nM; in series [2] (rat L6 cells, 72 hours incubation, Alamar Blue, read-out: 50% Proliferation Inhibitory Concentration IC50 L-6 Cells), above 173 µM; in series [3] (Leishmania, Macrophage, 96 h), 353 nM.
On to `CCn1c(=O)/c(=C/C=C2\Sc3ccccc3N2C)s/c1=C\c1sc2ccc(F)cc2[n+]1C.[Cl-]` [Compound A], for which the melting point is 274.5 to 275.6 °C. In addition, in series [1], the “Selective Toxicity Coefficient” value is on record as >15,000. Moreover, the “Toxicity toward normal cells” value in series [2] (rat L6 cells) is given as “only a weak toxicity toward normal cells”. Moreover, the “Infection Inhibition Rate” value in series [4] (intravenous injection 0.20 mg/kg/day × 5 days) came to 16.1%. Also, the “Infection Inhibition Rate” value in series [4] (intravenous injection 1.30 mg/kg/day × 5 days) came out at 94.9%. Further, the “Infection Inhibition Rate” value in series [4] (intravenous injection 4.10 mg/kg/day × 5 days) came to 97.1%.
Take `CCn1c(=O)/c(=C/C=C2\Sc3ccccc3N2C)s/c1=C\c1sc2ccc(F)cc2[n+]1C` [Compound C, 2-((3-ethyl-5-(2-(3-methylbenzo[d]thiazol-2(3H)-ylidene)ethylidene)-4-oxothiazolidin-2-ylidene)methyl)-5-fluoro-3-methylbenzo[d]thiazol-3-ium maleate]: in series [1], the “Selective Toxicity Coefficient” value is 2,870. Also, the IC50 in series [1] (setting [6]) was found to be 25 nM; in series [2] (setting [7]) it was 71.7 µM. For the same compound, the “Toxicity toward normal cells” value in series [2] (rat L6 cells) was “only a weak toxicity toward normal cells”.
For `CCn1c(=O)/c(=C/C=C2\Sc3ccccc3N2C)s/c1=C\c1sc2ccc(F)cc2[n+]1C` [Compound D, 2-((3-ethyl-5-(2-(3-methylbenzo[d]thiazol-2(3H)-ylidene)ethylidene)-4-oxothiazolidin-2-ylidene)methyl)-5-fluoro-3-methylbenzo[d]thiazol-3-ium methanesulfonate], in series [1] (methanesulfonate), the “Selective Toxicity Coefficient” value is on record as 4,220. Also, the IC50 in series [1] (read-out: 50% Proliferation Inhibitory Concentration IC50 L. Don, amastigotes, 72 hours incubation, pH 5.4, Alamar Blue, methanesulfonate) came to 20 nM; in series [2] (read-out: 50% Proliferation Inhibitory Concentration IC50 L-6 Cells, rat L6 cells, 72 hours incubation, Alamar Blue, methanesulfonate), 84.5 µM.
As to `CCn1c(=O)/c(=C/C=C2\Sc3ccccc3N2C)s/c1=C\c1sc2ccccc2[n+]1C` [Compound X, reference compound], the “Selective Toxicity Coefficient” value in series [1] is on record as 2,400. The values for the IC50 in series [1] (setting [6]) and in series [2] (setting [7]) were 52 nM and 125 µM, respectively. The “Toxic effect against macrophages” value in series [5] is listed as “Could not be tested as the macrophages died”.
As to `CCN1/C(=C/C=c2\s/c(=C\c3sc4c5ccccc5ccc4[n+]3CC)n(CC)c2=O)Sc2ccc3ccccc3c21` [Compound Y], the “Toxic effect against macrophages” value in series [5] is “macrophages were killed by strong toxic effects; also recorded: Could not be tested as the macrophages died”.
Still for that read-out and setting: the entry for `CCN1CCS/C1=C\C=c1/s/c(=C\c2sc3c4ccccc4ccc3[n+]2CCO)n(CC)c1=O` [Compound Z] is “macrophages were killed by strong toxic effects; also recorded: Could not be tested as the macrophages died”.
In the case of `CCCCCCCCCCCCCCCCOP(=O)([O-])OCC[N+](C)(C)C` [Miltefosine, miltefosine, reference compound], the IC50 stood at 430 nM in series [1] (amastigotes, 72 hours incubation, pH 5.4, Alamar Blue, read-out: 50% Proliferation Inhibitory Concentration IC50 L. Don) and 811 nM in series [3].

Broadly, the melting point is the temperature of the solid-liquid transition.

(Values after patent US8471036B2, “Rhodacyanine derivative and pharmaceutical composition for treating leishmaniasis” (FUJIFILM Corporation, priority 2009, dated 2013).)
